13 compounds from PubChem BioAssay (NCI) can be followed below.

Among the test systems are PC-3 prostate; SNB-19 CNS; BT-549 breast; SF-268 CNS; SR leukemia; LOX IMVI melanoma; 786-0 renal; RXF 393 renal; SF-539 CNS; UO-31 renal.
Holding throughout (assay): growth of human tumour cells (NCI), 48 h

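Tested at 5 concentrations; 48 h exposure; 96-well plates; endpoints linearly interpolated, else capped at highest concentration. At the TGI there is no net growth.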

Take `C/C(=N\Nc1nc2ccccc2s1)c1ccc2ccccc2n1`: the TGI in the experiment with PC-3 prostate was > 100 µM; in the experiment with SNB-19 CNS, > 100 µM; in the experiment with BT-549 breast, > 100 µM; in the experiment with SF-268 CNS, > 100 µM; in the experiment with SR leukemia, 5.88 µM; in the experiment with LOX IMVI melanoma, > 100 µM. Besides, the TGI in the experiment on 786-0 renal is > 100 µM; in the experiment on RXF 393 renal, 73.3 µM; with SF-539 CNS, > 100 µM; in the experiment with UO-31 renal it was > 100 µM.
`O=C(/C=C/c1ccc2c(c1)OCO2)Cc1nc2ccccc2[nH]c1=O`: the TGI in the experiment with PC-3 prostate was 47.9 µM; with SNB-19 CNS, 49.4 µM; in the experiment on BT-549 breast, > 100 µM; in the experiment on SF-268 CNS it was 55.3 µM; with SR leukemia it was > 100 µM; with LOX IMVI melanoma, > 100 µM. For the same compound, the TGI with 786-0 renal was 32.5 µM; in the experiment with RXF 393 renal it was 33.6 µM; with SF-539 CNS it was > 100 µM; in the experiment on UO-31 renal, 50.9 µM.
`O=S1SC(=S)C2C=CC=CC21` (stereo not given): the TGI in the experiment with PC-3 prostate, in the experiment on SNB-19 CNS, in the experiment with BT-549 breast, in the experiment on SF-268 CNS, in the experiment with SR leukemia and with LOX IMVI melanoma was > 100 µM each time. Also, the TGI in the experiment on 786-0 renal, with RXF 393 renal, in the experiment with SF-539 CNS and in the experiment with UO-31 renal was > 100 µM throughout.
Regarding `Cc1c(-c2ccccc2)[nH]n(C2=NCCN2)c1=O`, the TGI in the experiment with PC-3 prostate, in the experiment on SNB-19 CNS, with BT-549 breast, in the experiment on SF-268 CNS, with SR leukemia and in the experiment with LOX IMVI melanoma was > 100 µM in each case. For the same compound, the TGI in the experiment on 786-0 renal, with RXF 393 renal, in the experiment on SF-539 CNS and with UO-31 renal was > 100 µM in each case.
Regarding `COc1ccc(Oc2cnn(C(Br)(Br)C(C)=O)c(=O)c2Br)cc1`, the TGI was found to be 27.4 µM with PC-3 prostate; 56.8 µM with SNB-19 CNS; 32.1 µM with BT-549 breast; 29 µM in the experiment on SF-268 CNS; 5.32 µM with SR leukemia; 24.4 µM in the experiment on LOX IMVI melanoma. The TGI with 786-0 renal came to 27.4 µM; in the experiment on RXF 393 renal, 16.8 µM; in the experiment on SF-539 CNS, 25.4 µM; in the experiment with UO-31 renal, 26.8 µM.
`O=S1(=O)c2cnccc2NC(=NCc2ccccc2)N1c1ccccc1`: the TGI with PC-3 prostate, in the experiment with SNB-19 CNS, in the experiment with BT-549 breast, with SF-268 CNS, in the experiment on SR leukemia and with LOX IMVI melanoma was > 100 µM each time. In addition, the TGI in the experiment on 786-0 renal, in the experiment with RXF 393 renal, in the experiment with SF-539 CNS and in the experiment on UO-31 renal was > 100 µM throughout.
Turning to `C[C@]12CC[C@@H]3c4ccc(O)cc4CC[C@H]3[C@@H]1C/C(=C\c1ccc(C#N)cc1)C2=O`, the TGI with PC-3 prostate, in the experiment on SNB-19 CNS, in the experiment on BT-549 breast, in the experiment with SF-268 CNS, in the experiment on SR leukemia and with LOX IMVI melanoma was > 100 µM each time. Further, the TGI in the experiment with 786-0 renal was > 100 µM; in the experiment with RXF 393 renal it was 52.6 µM; with SF-539 CNS it was > 100 µM; in the experiment with UO-31 renal, > 100 µM.
On to `O=C(O)CN(CC(=O)O)C(C(=O)O)c1ccccc1` (stereo not given), for which the TGI in the experiment with PC-3 prostate, in the experiment with SNB-19 CNS, in the experiment on BT-549 breast, in the experiment on SF-268 CNS, with SR leukemia and with LOX IMVI melanoma was > 100 µM throughout. For the same compound, the TGI with 786-0 renal, in the experiment on RXF 393 renal, with SF-539 CNS and with UO-31 renal was > 100 µM throughout.
With `CCNc1ncnc2sc(SCc3ccccc3)nc12`, the TGI in the experiment with PC-3 prostate, in the experiment with SNB-19 CNS, in the experiment with BT-549 breast, in the experiment with SF-268 CNS, in the experiment with SR leukemia and in the experiment with LOX IMVI melanoma was > 100 µM throughout. Moreover, the TGI with 786-0 renal, in the experiment on RXF 393 renal, with SF-539 CNS and in the experiment on UO-31 renal was > 100 µM throughout.
In the case of `S=C1NC2=C(CSC/C2=C\c2ccccc2)C(c2ccccc2)N1` (stereo not given), the TGI is > 100 µM in the experiment on PC-3 prostate; > 100 µM in the experiment on SNB-19 CNS; 78.7 µM in the experiment with BT-549 breast; > 100 µM in the experiment on SF-268 CNS; > 100 µM in the experiment on SR leukemia; > 100 µM with LOX IMVI melanoma. In addition, the TGI in the experiment with 786-0 renal, with RXF 393 renal, in the experiment on SF-539 CNS and in the experiment with UO-31 renal was > 100 µM in each case.
For `O=C(OCC1OC(n2nc(Cn3nnc(-c4cccnc4)n3)n(-c3cccc4ccccc34)c2=S)C(OC(=O)c2ccccc2)C1OC(=O)c1ccccc1)c1ccccc1` (stereo not given), the TGI in the experiment with PC-3 prostate, in the experiment on SNB-19 CNS, in the experiment on BT-549 breast, in the experiment on SF-268 CNS, with SR leukemia and with LOX IMVI melanoma was > 100 µM each time. Also, the TGI in the experiment on 786-0 renal, in the experiment with RXF 393 renal, in the experiment with SF-539 CNS and in the experiment with UO-31 renal was > 100 µM throughout.
As for `C[n+]1c(/C=C/c2ccc(O)c3ncccc23)[se]c2ccccc21`, the TGI is 12.7 µM in the experiment on PC-3 prostate; 51.3 µM in the experiment on SNB-19 CNS; 35 µM with BT-549 breast; 27.6 µM with SF-268 CNS; > 21.9 µM in the experiment with SR leukemia; 9.08 µM in the experiment on LOX IMVI melanoma. The TGI in the experiment on 786-0 renal came to 24.4 µM; with RXF 393 renal it was 37.8 µM; in the experiment on SF-539 CNS, 21.3 µM; in the experiment on UO-31 renal, 18.3 µM.
Consider `C/C(=C\CO)CC/C=C(\C)CNc1ccc([N+](=O)[O-])cc1`, for which the TGI was 66.2 µM in the experiment with PC-3 prostate; > 100 µM with SNB-19 CNS; 37.5 µM in the experiment with BT-549 breast; > 100 µM in the experiment with SF-268 CNS; 27.1 µM with SR leukemia; > 100 µM with LOX IMVI melanoma. Further, the TGI in the experiment on 786-0 renal is > 100 µM; in the experiment on RXF 393 renal, > 100 µM; with SF-539 CNS, > 100 µM; in the experiment with UO-31 renal, 45.9 µM.
